Laboratory results published in ChEMBL document CHEMBL1208719, “Design and synthesis of 4-[3,5-dioxo-11-oxa-4,9-diazatricyclo[5.3.1.0(2,6)]undec-4-yl]-2-trifluoromethyl-benzonitriles as androgen receptor antagonists” (Bioorg Med Chem Lett, 2010).

How the values were obtained:
LNCaP = assay: Cytotoxicity against human LNCAP cells assessed as inhibition of DHT-induced cell growth at 5 uM; assay type: functional
Androgen receptor [1] = target: T1, Androgen receptor (Homo sapiens, UniProt P10275); assay: Displacement of [3H]DHT from AR in human MDA-MB-453 cells
T1 sequence (P10275 whole entry): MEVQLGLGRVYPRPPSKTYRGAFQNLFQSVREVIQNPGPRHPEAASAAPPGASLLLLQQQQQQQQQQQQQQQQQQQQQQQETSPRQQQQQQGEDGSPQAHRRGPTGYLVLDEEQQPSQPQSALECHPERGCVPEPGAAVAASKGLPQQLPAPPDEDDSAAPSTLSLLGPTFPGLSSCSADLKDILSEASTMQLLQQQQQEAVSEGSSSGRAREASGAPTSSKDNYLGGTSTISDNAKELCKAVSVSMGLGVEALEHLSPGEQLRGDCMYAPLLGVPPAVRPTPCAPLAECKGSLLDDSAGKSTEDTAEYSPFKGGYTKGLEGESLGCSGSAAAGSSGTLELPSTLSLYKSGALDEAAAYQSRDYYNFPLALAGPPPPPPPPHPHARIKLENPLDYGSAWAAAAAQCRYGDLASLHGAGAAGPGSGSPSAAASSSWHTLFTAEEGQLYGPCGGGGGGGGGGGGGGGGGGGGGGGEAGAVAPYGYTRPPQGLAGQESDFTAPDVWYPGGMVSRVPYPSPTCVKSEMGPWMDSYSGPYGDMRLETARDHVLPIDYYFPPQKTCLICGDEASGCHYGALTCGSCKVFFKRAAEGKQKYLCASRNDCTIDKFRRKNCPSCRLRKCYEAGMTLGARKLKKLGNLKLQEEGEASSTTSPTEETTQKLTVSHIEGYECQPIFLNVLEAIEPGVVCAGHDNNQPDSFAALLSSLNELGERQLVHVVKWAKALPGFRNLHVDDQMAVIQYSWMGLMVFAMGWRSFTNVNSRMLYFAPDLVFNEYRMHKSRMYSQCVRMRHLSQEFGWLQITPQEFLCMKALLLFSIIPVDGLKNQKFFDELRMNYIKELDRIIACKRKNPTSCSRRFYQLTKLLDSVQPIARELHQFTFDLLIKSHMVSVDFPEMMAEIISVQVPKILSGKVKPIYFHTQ

MDA-MB-435 = assay: Cytotoxicity against human MDA-MB-435 cells assessed as inhibition of DHT-induced cell growth at 5 uM; assay type: functional
Androgen receptor [2] = target: T1, Androgen receptor
Description: Antagonist activity at wild type human AR expressed in human LNCAP cells by transactivation assay

Androgen receptor [3] = target: T1, Androgen receptor; remark: listed apart in the source
Description: Antagonist activity at human wild type AR expressed in human MDA-MB-435 cells by transactivation assay

With C[C@]12CN(C(=O)c3ccccc3)C[C@](C)(O1)[C@@H]1C(=O)N(c3ccc(C#N)c(C(F)(F)F)c3)C(=O)[C@@H]12 the inhibition at 5 µM (LNCaP) was 98%, the Ki (Androgen receptor [1]) was 0.023 µM and the inhibition at 5 µM (MDA-MB-435) was 99%. The IC50 (Androgen receptor [2]) was 0.177 µM and the IC50 (Androgen receptor [3]) was 0.054 µM.

In the case of C[C@]12CN(S(=O)(=O)c3ccccn3)C[C@](C)(O1)[C@@H]1C(=O)N(c3ccc(C#N)c(C(F)(F)F)c3)C(=O)[C@@H]12, the inhibition at 5 µM (LNCaP) is reported as 80%, the Ki (Androgen receptor [1]) is reported as 0.093 µM and the inhibition at 5 µM (MDA-MB-435) is reported as 98%. For the same compound, the IC50 (Androgen receptor [2]) was 1.24 µM and the IC50 (Androgen receptor [3]) was 0.17 µM.

Compound C[C@]12CNC[C@](C)(O1)[C@@H]1C(=O)N(c3ccc(C#N)c(C(F)(F)F)c3)C(=O)[C@@H]12 has an inhibition at 5 µM (LNCaP) of 20%, a Ki (Androgen receptor [1]) of 0.021 µM and an inhibition at 5 µM (MDA-MB-435) of 98%. For the same compound, the IC50 (Androgen receptor [2]) was > 5 µM and the IC50 (Androgen receptor [3]) was 0.128 µM.

In the case of CCNC(=O)N1C[C@@]2(C)O[C@@](C)(C1)[C@@H]1C(=O)N(c3ccc(C#N)c(C(F)(F)F)c3)C(=O)[C@@H]12, the inhibition at 5 µM (LNCaP) is reported as 76%, the Ki (Androgen receptor [1]) is reported as 0.176 µM and the inhibition at 5 µM (MDA-MB-435) is reported as 97%. It also gave an IC50 (Androgen receptor [2]) of 1.46 µM and an IC50 (Androgen receptor [3]) of 0.313 µM.

CCCOC(=O)N1C[C@@]2(C)O[C@@](C)(C1)[C@@H]1C(=O)N(c3ccc(C#N)c(C(F)(F)F)c3)C(=O)[C@@H]12 showed an inhibition at 5 µM (LNCaP) of 99%, a Ki (Androgen receptor [1]) of 0.0066 µM and an inhibition at 5 µM (MDA-MB-435) of 99%. For the same compound, the IC50 (Androgen receptor [2]) was 0.054 µM and the IC50 (Androgen receptor [3]) was 0.0093 µM.

C[C@]12CN(S(=O)(=O)c3ccc(F)cc3)C[C@](C)(O1)[C@@H]1C(=O)N(c3ccc(C#N)c(C(F)(F)F)c3)C(=O)[C@@H]12 was tested, and the inhibition at 5 µM (LNCaP) was 95%, the Ki (Androgen receptor [1]) was 0.032 µM and the inhibition at 5 µM (MDA-MB-435) was 100%. The IC50 (Androgen receptor [2]) was 0.685 µM and the IC50 (Androgen receptor [3]) was 0.054 µM.

Compound CC(C)NC(=O)N1C[C@@]2(C)O[C@@](C)(C1)[C@@H]1C(=O)N(c3ccc(C#N)c(C(F)(F)F)c3)C(=O)[C@@H]12 has an inhibition at 5 µM (LNCaP) of 52%, a Ki (Androgen receptor [1]) of 0.098 µM and an inhibition at 5 µM (MDA-MB-435) of 88%. It also gave an IC50 (Androgen receptor [2]) of 4.6 µM and an IC50 (Androgen receptor [3]) of 0.876 µM.

CC(C)OC(=O)N1C[C@@]2(C)O[C@@](C)(C1)[C@@H]1C(=O)N(c3ccc(C#N)c(C(F)(F)F)c3)C(=O)[C@@H]12 was tested, and the inhibition at 5 µM (LNCaP) was 99%, the Ki (Androgen receptor [1]) was 0.011 µM and the inhibition at 5 µM (MDA-MB-435) was 99%. It also gave an IC50 (Androgen receptor [2]) of 0.069 µM and an IC50 (Androgen receptor [3]) of 0.012 µM.

Work on CC(C)C(=O)N1C[C@@]2(C)O[C@@](C)(C1)[C@@H]1C(=O)N(c3ccc(C#N)c(C(F)(F)F)c3)C(=O)[C@@H]12 yielded an inhibition at 5 µM (LNCaP) of 72%, a Ki (Androgen receptor [1]) of 0.039 µM and an inhibition at 5 µM (MDA-MB-435) of 98%. The IC50 (Androgen receptor [2]) was 1.61 µM and the IC50 (Androgen receptor [3]) was 0.215 µM.

With CON1C[C@@]2(C)O[C@@](C)(C1)[C@@H]1C(=O)N(c3ccc(C#N)c(C(F)(F)F)c3)C(=O)[C@@H]12 the inhibition at 5 µM (LNCaP) was 72%, the Ki (Androgen receptor [1]) was 0.0037 µM and the inhibition at 5 µM (MDA-MB-435) was 99%. The IC50 (Androgen receptor [2]) was 0.179 µM and the IC50 (Androgen receptor [3]) was 0.024 µM.

Work on C[C@]12CN(c3cc(Cl)ncn3)C[C@](C)(O1)[C@@H]1C(=O)N(c3ccc(C#N)c(C(F)(F)F)c3)C(=O)[C@@H]12 yielded an inhibition at 5 µM (LNCaP) of 100%, a Ki (Androgen receptor [1]) of 0.0035 µM and an inhibition at 5 µM (MDA-MB-435) of 98%. The IC50 (Androgen receptor [3]) was 0.011 µM.

Work on C[C@]12CN(c3cccc(C(N)=O)c3)C[C@](C)(O1)[C@@H]1C(=O)N(c3ccc(C#N)c(C(F)(F)F)c3)C(=O)[C@@H]12 yielded an inhibition at 5 µM (LNCaP) of 99%, a Ki (Androgen receptor [1]) of 0.009 µM and an inhibition at 5 µM (MDA-MB-435) of 98%. For the same compound, the IC50 (Androgen receptor [2]) was 0.127 µM.

Work on CC(C)N1C(=O)[C@]2(C)O[C@](C)(C1=O)[C@H]1C(=O)N(c3ccc(C#N)c(C(F)(F)F)c3)C(=O)[C@H]12 yielded an inhibition at 5 µM (LNCaP) of 99%, a Ki (Androgen receptor [1]) of 0.014 µM and an inhibition at 5 µM (MDA-MB-435) of 99%. The IC50 (Androgen receptor [2]) was 0.125 µM and the IC50 (Androgen receptor [3]) was 0.032 µM.

Compound C[C@]12CN(C(=O)Nc3ccccc3)C[C@](C)(O1)[C@@H]1C(=O)N(c3ccc(C#N)c(C(F)(F)F)c3)C(=O)[C@@H]12 has an inhibition at 5 µM (LNCaP) of 98%, a Ki (Androgen receptor [1]) of 0.04 µM and an inhibition at 5 µM (MDA-MB-435) of 99%. The IC50 (Androgen receptor [2]) was 0.123 µM and the IC50 (Androgen receptor [3]) was 0.016 µM.
